Laboratory results taken from PubChem BioAssay (NCI).
Values joined by “and” are separate entries in the source; they are usually repeats but may differ in a detail not shown here. Equal entries are not always repeated.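 A five-concentration, 48-hour dose response in 96-well plates underlies each endpoint, interpolated linearly between surrounding concentrations. GI50 marks 50% less growth. Definition used: TGI = concentration required for complete inhibition of growth.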

Tests used:
Experiment in all cases: DTP human tumour cell line panel, 48 h
[1] = test system: A498 renal
[2] = test system: A549 NSCLC
[3] = test system: BT-549 breast
[4] = test system: HOP-62 NSCLC
[5] = test system: KM12 colon
[6] = test system: NCI-H522 lung
[7] = test system: RPMI-8226 leukemia
[8] = test system: SNB-19 CNS
[9] = test system: SR leukemia
[10] = test system: T-47D breast

## CN(c1ccc(NC(=O)Nc2c(Cl)cccc2Cl)cc1)c1ccnc(Nc2cccc(CS(C)(=O)=O)c2)n1
[1]
  GI50: 4.4 µM
  TGI: > 20.3 µM
[2]
  GI50: 1.65 µM
  TGI: 7.66 µM
[3]
  GI50: 3.3 µM
  TGI: 8.15 µM
[4]
  GI50: 3.71 µM
  TGI: 11.9 µM
[5]
  GI50: 0.104 µM
  TGI: 5.12 µM
[6]
  GI50: 3.1 µM
  TGI: 9.23 µM
[7]
  GI50: 3.68 µM
  TGI: > 22.7 µM
[8]
  GI50: 4.5 µM
  TGI: > 25 µM
[9]
  GI50: 303 nM
  TGI: > 25 µM
[10]
  GI50: 4.46 µM
  TGI: 13.2 µM

## CCN1C(=O)/C(=C/c2c(Cl)[nH]c3cc(C)c(OC)cc23)c2ccccc21
[1]
  GI50: 5.95 µM
  TGI: 33 µM
[2]
  GI50: 2.84 µM
  TGI: > 100 µM
[3]
  GI50: 0.5 µM
  TGI: 6.31 µM
[4]
  GI50: 5.6 µM
  TGI: 30.8 µM
[5]
  GI50: 0.483 µM
  TGI: 12.2 µM
[6]
  GI50: 0.823 µM
  TGI: 6.58 µM
[7]
  GI50: 2.7 µM
  TGI: 24.1 µM
[8]
  GI50: 3.43 µM
  TGI: 48.2 µM
[9]
  GI50: 2490 nM
  TGI: > 100 µM
[10]
  GI50: 3.76 µM
  TGI: > 100 µM

## CN(C)CCC(=O)N1C/C(=C\c2ccc(Cl)c(Cl)c2)C(=O)/C(=C/c2ccc(Cl)c(Cl)c2)C1
[1]
  TGI: 4.6 µM
[2]
  TGI: 2.05 µM
[3]
  TGI: 1.7 µM
[4]
  TGI: 0.941 µM
[5]
  TGI: 0.948 µM
[6]
  TGI: 0.455 µM
[7]
  TGI: 0.485 µM
[8]
  TGI: 2.13 µM
[9]
  TGI: 9.84 µM
[10]
  TGI: 2.48 µM

## CS(=O)(=O)CCNCc1coc(-c2ccc3ncnc(Nc4ccc(OCc5ccccc5)cc4)c3c2)c1
[1]
  GI50: 1.49 µM
  TGI: 6.25 µM
[2]
  GI50: 5.65 µM
  TGI: > 22 µM
[3]
  GI50: 10.9 µM
  TGI: > 25 µM
[4]
  GI50: 5.03 µM
  TGI: 11.1 µM
[5]
  GI50: 4.68 µM
  TGI: 11.9 µM
[6]
  GI50: 3.32 µM
  TGI: 6.9 µM
[7]
  GI50: 4.86 µM
  TGI: 11.6 µM
[8]
  GI50: 6.4 µM
  TGI: > 25 µM
[9]
  GI50: 4810 nM
  TGI: 12.9 µM
[10]
  GI50: 3.57 µM
  TGI: 8.03 µM

## COc1cccc2c1C(=N)c1c(O)c3c(c(O)c1C2=O)C[C@@](O)(C(C)=O)C[C@@H]3O[C@H]1C[C@H](N)[C@H](O)[C@H](C)O1
[1]
  GI50: 1.5 µM
  TGI: 5.86 µM
[2]
  GI50: 0.155 µM
  TGI: 1.58 µM
[3]
  GI50: 0.813 µM
  TGI: 4.58 µM
[4]
  GI50: 0.152 µM
  TGI: 1.37 µM
[5]
  GI50: 1.32 µM
  TGI: 8.68 µM
[6]
  GI50: 0.256 µM
  TGI: 1.5 µM
[7]
  GI50: 0.255 µM
  TGI: 4.03 µM
[8]
  GI50: 0.232 µM
  TGI: 2.92 µM
[9]
  GI50: 21.7 nM
  TGI: 6.08 µM
[10]
  GI50: 0.24 µM
  TGI: 4.17 µM

## CN(C)C/C=C/C(=O)Nc1ccc(C(=O)N[C@@]2(C)CCC[C@@H](Nc3ncc(Cl)c(-c4c[nH]c5ccccc45)n3)C2)nc1
[1]
  GI50: 0.0189 µM
  TGI: 0.0621 µM
[3]
  GI50: 0.036 µM
  TGI: 0.155 µM
[5]
  GI50: 0.013 µM
  TGI: 0.194 µM
[6]
  GI50: 0.0178 µM
  TGI: 0.0664 µM
[7]
  GI50: < 0.01 µM
  TGI: 0.0244 µM
[8]
  GI50: 0.0163 µM
  TGI: 1.07 µM
[9]
  GI50: < 10 nM
  TGI: 1.09 µM
[10]
  GI50: 0.0218 µM
  TGI: 0.565 µM

## Cc1ccc(C)c(NC(=O)CC2Sc3ccccc3NC2=O)c1 (centres undefined)
[1]
  GI50: 15.1 µM and 34 µM
  TGI: 23.7 µM and 60.9 µM
[2]
  GI50: 24.9 µM and 70.8 µM
  TGI: > 100 µM
[3]
  GI50: 19.2 µM and 39 µM
  TGI: 82.4 µM and > 95.8 µM
[4]
  TGI: 34.1 µM and 48.1 µM
[5]
  GI50: 22.7 µM and > 100 µM
  TGI: > 100 µM
[6]
  GI50: 21.7 µM and 45.6 µM
  TGI: 60.6 µM and > 93.8 µM
[7]
  TGI: > 100 µM
[8]
  TGI: 42.1 µM and 63.8 µM
[9]
  TGI: > 100 µM
[10]
  GI50: 17.4 µM and > 63.1 µM
  TGI: 83.9 µM and > 100 µM

## Nc1n[nH]c2cccc(C#Cc3cccc(NC(=O)c4cccc(C(F)(F)F)c4)c3)c12
[1]
  GI50: 2.41 µM
  TGI: 5.57 µM
[2]
  GI50: 4.84 µM
  TGI: 18.6 µM
[3]
  GI50: 3.34 µM
  TGI: 11.1 µM
[4]
  GI50: 3.41 µM
  TGI: 13.9 µM
[5]
  GI50: 4.52 µM
  TGI: 19.8 µM
[6]
  GI50: 4.42 µM
  TGI: 18.1 µM
[7]
  GI50: 3.44 µM
  TGI: 21.5 µM
[8]
  GI50: 6.13 µM
  TGI: 18.5 µM
[9]
  GI50: 3950 nM
  TGI: 55 µM
[10]
  GI50: 1.81 µM
  TGI: 8.1 µM

## CCCCCCCCCCCCCCCCCCOC[C@H](COP(=O)(O)O[C@H]1[C@H](O)[C@@H](O)[C@H](O)C[C@H]1O)OC
[1]
  TGI: > 100 µM
[2]
  GI50: > 100 µM and 15 µM
  TGI: > 100 µM and 28.8 µM
[3]
  GI50: > 100 µM and 15.9 µM
  TGI: > 100 µM and 30.4 µM
[4]
  GI50: > 100 µM and 15.7 µM
  TGI: > 100 µM and 41.5 µM
[5]
  GI50: 25.9 µM and 4.67 µM
  TGI: > 100 µM and 28.1 µM
[6]
  GI50: 36.5 µM and 11.4 µM
  TGI: > 100 µM and 25.4 µM
[7]
  TGI: 79.7 µM and 30.7 µM
[9]
  TGI: 45.9 µM and 40.8 µM
[10]
  GI50: > 100 µM and 16.9 µM
  TGI: > 100 µM and 37.4 µM

## COc1ccc2c(c1)C(=O)/C(=C/c1cccc(OCC(=O)c3ccccc3)c1)O2
[1]
  GI50: 17.3 µM
  TGI: 31 µM
[2]
  GI50: 4.93 µM
  TGI: 24.9 µM
[3]
  GI50: 3.63 µM
  TGI: 13.1 µM
[4]
  GI50: 14.5 µM
  TGI: 28.5 µM
[5]
  GI50: 4.23 µM
  TGI: 16.1 µM
[6]
  GI50: 1.62 µM
  TGI: 3.26 µM
[8]
  GI50: 15 µM
  TGI: 29 µM
[9]
  GI50: 1470 nM
  TGI: 3.26 µM
[10]
  GI50: 2.04 µM
  TGI: 4.88 µM

## CNC(=O)OCc1c(COC(=O)NC)c(-c2ccc(-c3ccccc3)cc2)n(C)c1C
[1]
  TGI: 2.39 µM
[2]
  TGI: 14.1 µM
[3]
  TGI: 7.11 µM
[4]
  TGI: 18.8 µM
[5]
  TGI: 24.9 µM
[6]
  TGI: 4.04 µM
[8]
  TGI: 16.9 µM
[9]
  TGI: > 100 µM
[10]
  TGI: 35.2 µM
